According to patent US20080058890A1, “HOMOTOPIC CO[…] THE BRAIN STEM […] A SUBJECT” (The Penn State Research Foundation, priority 2006, published 2008):

Test system: NMDA receptor
Conditions: NMB rat; CPP 2.5 mg total i.v. (1.25 mg/ml x 0.2 ml/min x 10 min) infused before tetanus; ERs hours 7-16 post-tetanus vs control

O=C(O)C1CN(CCCP(=O)(O)O)CCN1 (stereo not shown) [CPP, 3-(2-Carboxypiperazin-4-yl)-propyl-1-phosphoric acid]
effect of a A+C-fiber tetanus on the A-fiber ERs (NTS evoked responses): blocked the effect of a A+C-fiber tetanus on the A-fiber ERs
